Laboratory results as given in publication PMC4721062, “Oxadiazole-2-oxides may have other functional targets, in addition to SjTGR, through which they cause mortality in Schistosoma japonicum” (Parasites & Vectors, 2016).
“Also recorded” adds a separate entry of the source. Like-named read-outs stand apart in the source and are kept apart here.

Legend:
recombinant SjTGR = molecular target: T1, recombinant SjTGR (Schistosoma japonicum, UniProt B5THG7); assay: Inhibition of TrxR activity of recombinant SjTGR (DTNB assay); assay type: biochemical; conditions: 50 nM SjTGR, 1 mM NADPH, 15 min preincubation, DTNB reduction; for IC50: read-out: IC50 of SjTGR
T1 sequence (B5THG7 1-596): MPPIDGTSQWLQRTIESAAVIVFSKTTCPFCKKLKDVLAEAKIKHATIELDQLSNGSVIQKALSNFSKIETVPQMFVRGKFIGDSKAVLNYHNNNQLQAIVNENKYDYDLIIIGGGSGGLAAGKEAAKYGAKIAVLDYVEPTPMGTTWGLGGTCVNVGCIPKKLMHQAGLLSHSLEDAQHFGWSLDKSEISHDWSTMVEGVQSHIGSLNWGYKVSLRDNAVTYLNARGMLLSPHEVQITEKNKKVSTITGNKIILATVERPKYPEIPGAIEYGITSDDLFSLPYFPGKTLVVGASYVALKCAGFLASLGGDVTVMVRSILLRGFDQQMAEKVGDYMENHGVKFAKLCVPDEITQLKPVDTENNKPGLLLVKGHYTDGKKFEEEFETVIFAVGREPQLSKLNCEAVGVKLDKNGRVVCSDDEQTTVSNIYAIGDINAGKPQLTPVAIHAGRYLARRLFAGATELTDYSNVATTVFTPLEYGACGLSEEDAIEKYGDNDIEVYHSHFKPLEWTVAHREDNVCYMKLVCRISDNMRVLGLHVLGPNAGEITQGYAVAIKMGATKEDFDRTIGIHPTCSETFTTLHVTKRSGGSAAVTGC
Description: The purified recombinant SjTGR proteins were produced according to the method described by Song et al.. The inhibition of TrxR activity by the recombinant SjTGR was performed as reported by Rai et al.. Briefly, 50 nM SjTGR and 1 mM NADPH were incubated with different concentrations of oxadiazole-2-oxides (2, 4, 6, 10, 20 μM) for 15 min at room temperature. Then, potassium phosphate buffer (pH 7.4) containing 10 mM EDTA, 100 μM NADPH, and 3 mM DTNB was added to start the reaction. The increase of absorbance at 412 nm was monitored during the first 2 min. All assays were done in triplicate.
50 nM SjTGR and 1 mM NADPH were incubated with different concentrations of oxadiazole-2-oxides (2, 4, 6, 10, 20 μM) for 15 min at room temperature. Then, potassium phosphate buffer (pH 7.4) containing 10 mM EDTA, 100 μM NADPH, 3 mM DTNB was added to start the reaction. The increase in absorbance at 412 nm was monitored during the first 2 min. All assays were done in triplicate. Results shown are the mean ± SD (n = 3)

juvenile S. japonicum = assay: microbe, parasite or virus in culture; assay type: cell-based; conditions: for Killing activity 24hr / Killing activity 48hr / Killing activity 72hr / killing at 2 µM / killing at 5 µM / killing at 50 µM: juvenile worms
Description: Infected Oncomelania hupensis, provided by the Department of Snail Biology, Jiangsu Institute of Parasitic Diseases, were incubated at 25–28 °C, under illumination, for 2 h to hatch S. japonicum cercariae. The cercariae were collected from the water surface with clean cover glass and placed into a centrifuge tube using pre cooled RPMI 1640. Centrifugation was performed for 1 min at 1500 rpm, and then the steps above were repeated. After centrifugation, the supernatant solution was removed. The cercariae at the bottom were washed twice and resuspended with RPMI 1640. Approximately 20–30 cercariae (1 mL of the resuspension medium) were added to one well in a 24-well culture plate. They were incubated overnight at 37 °C with 5 % CO2. The survival rates and number of tails shed were observed under an inverted microscope. Cercariae that had shed their tails were used as juvenile S. japonicum.
20–30 juvenile worms were transferred into each well of a 24-well culture plate, containing 2 mL RPMI 1640 medium, 20 mM HEPES, 100 IU/mL penicillin, […] streptomycin and 10 % fetal bovine serum. Then, oxadiazole-2-oxides (2, 5, 10, and 50 μM), diluted with the RPMI 1640 medium, were added to their allocated wells. The worms in the negative control wells were treated with equal volumes of RPMI 1640 or DMSO and worms treated with AS were observed as positive controls. The juvenile worms’ survival rates were observed under an inverted phase contrast microscope (Leica, Wetzlar, Germany) at 24, 48 and 72 h. Parasite death was defined as an unclear internal structure of the juvenile worms, with incomplete tegument and contents overflowing radially, or unclear internal structure with complete tegument, but having no motor activity during 1 min of continuous observation. All assays were repeated three times.
^b Data collected by visual examination of worm movement and shape; % D = The number of worms dead / The total number of worms observed, and worms dead judged by unclear internal structure of juvenile worms with uncompleted tegument, and contents overflowing radially, or unclear internal structure with complete tegument, but having no motor activity during 1 min of continuous observation. The data presented are the average of three independent experiments.

adult S. japonicum = assay: microbe, parasite or virus in culture; assay type: cell-based; conditions: adult worms
Excerpt: ICR mice (20–22 g), were obtained from the Shanghai Sub-Center of Experimental Animals, Chinese Academy of Sciences. They were maintained at the Department of Experimental Animals, Jiangsu Institute of Parasitic Diseases. To infect each mouse, its abdominal skin was exposed to 50 S. japonica cercariae. All of the mice were executed to collect S. japonica adult worms, through portal vein perfusion, 35 days post-infection. The adult S. japonica collected were washed with RPMI 1640 medium and then kept in RPMI 1640 medium (pH 7.5) with HEPES 20 mM, penicillin (100 IU/mL), streptomycin ([…]) and 10 % fetal bovine serum. Then, two pairs of adult worms were transferred into each well of a 24-well culture plate, with 2 mL of the same medium. The worms were cultured at 37 °C in a humid atmosphere with 5 % CO2.
Adult worms were cultured in a 24-well culture plate for 30–60 min at 37 °C, in a humid atmosphere with 5 % CO2. Then, oxadiazole-2-oxides at different concentrations (10, 25, 50, 100 μM) were added. Equal volumes of RPMI 1640 or DMSO were applied as negative controls, while PZQ was applied as a positive control. The adult worm mobility and parasite survival rates were monitored using an inverted phase contrast microscope, at 24, 48 and 72 h. Parasite death was defined as there being no motor activity during 2 min of continuous observation, and morphological and tegumental alterations. All assays were repeated three times.
^b Data collected by visual examination of worm movement and shape; n.e. […] The data presented are the average of three independent experiments.

[1] = Schistosoma japonicum, 50 μM, 48 h, read-out: Killing activity 48hr
[2] = Schistosoma japonicum, 50 μM, 72 h, read-out: Killing activity 72hr

N#Cc1c(-c2ccc(OCCCOc3ccc(-c4no[n+]([O-])c4C#N)cc3)cc2)no[n+]1[O-] [Compound 21]
IC50 of SjTGR (recombinant SjTGR): did not inhibit SjTGR; also recorded: neither did they inhibit the SjTGR activity | IC50 (recombinant SjTGR): > 20 µM | Killing activity 24hr (juvenile S. japonicum; 2 μM, 24 h): 22.5%D | Killing activity 48hr (juvenile S. japonicum; 2 μM, 48 h): 22.5%D | Killing activity 72hr (juvenile S. japonicum; 2 μM, 72 h): 27.5%D | Killing activity 24hr (juvenile S. japonicum; 5 μM, 24 h): 26.7%D | Killing activity 48hr (juvenile S. japonicum; 5 μM, 48 h): 26.7%D | Killing activity 72hr (juvenile S. japonicum; 5 μM, 72 h): 30.0%D | Killing activity 24hr (juvenile S. japonicum; 10 μM, 24 h): 30.0%D | Killing activity 48hr (juvenile S. japonicum; 10 μM, 48 h): 33.3%D | Killing activity 72hr (juvenile S. japonicum; 10 μM, 72 h): 56.7%D | Killing activity 24hr (juvenile S. japonicum; 50 μM, 24 h): 33.3%D | Killing activity 48hr (juvenile S. japonicum; 50 μM, 48 h): 38.3%D | Killing activity 72hr (juvenile S. japonicum; 50 μM, 72 h): 67.0%D | Killing activity 24hr (adult S. japonicum; 10 μM, 24 h): n.e. | Killing activity 48hr (adult S. japonicum; 10 μM, 48 h): sluggish | Killing activity 72hr (adult S. japonicum; 10 μM, 72 h): sluggish | Killing activity 24hr (adult S. japonicum; 25 μM, 24 h): n.e | Killing activity 48hr (adult S. japonicum; 25 μM, 48 h): 100%D | Killing activity 72hr (adult S. japonicum; 25 μM, 72 h): 100%D | Killing activity 24hr (adult S. japonicum; 50 μM, 24 h): 66.7%D | Killing activity 48hr (adult S. japonicum; 50 μM, 48 h): 100%D | Killing activity 72hr (adult S. japonicum; 50 μM, 72 h): 100%D | Killing activity 24hr (adult S. japonicum; 100 μM, 24 h): 75.0%D | Killing activity 48hr (adult S. japonicum; 100 μM, 48 h): 100%D | Killing activity 72hr (adult S. japonicum; 100 μM, 72 h): 100%D

N#Cc1c(-c2ccc(OCC(=O)c3ccccc3)cc2)no[n+]1[O-] [Compound 17]
IC50 of SjTGR (recombinant SjTGR): did not inhibit | IC50 (recombinant SjTGR): > 20 µM | mortality at 50 µM (juvenile S. japonicum; Schistosoma japonicum, 24 h, read-out: Mortality of juvenile worms): < 30% | killing at 2 µM (juvenile S. japonicum; Schistosoma japonicum, 2 μM, 24 h, read-out: Killing activity 24hr): 28.1% | killing at 2 µM (juvenile S. japonicum; Schistosoma japonicum, 2 μM, 48 h, read-out: Killing activity 48hr): 37.5% | killing at 2 µM (juvenile S. japonicum; Schistosoma japonicum, 2 μM, 72 h, read-out: Killing activity 72hr): 46.9% | killing at 5 µM (juvenile S. japonicum; Schistosoma japonicum, 5 μM, 24 h, read-out: Killing activity 24hr): 29.2% | killing at 5 µM (juvenile S. japonicum; Schistosoma japonicum, 5 μM, 48 h, read-out: Killing activity 48hr): 41.7% | killing at 5 µM (juvenile S. japonicum; Schistosoma japonicum, 5 μM, 72 h, read-out: Killing activity 72hr): 50% | killing at 50 µM (juvenile S. japonicum; Schistosoma japonicum, 50 μM, 24 h, read-out: Killing activity 24hr): 45.8% | killing at 50 µM (juvenile S. japonicum; [1]): 60.4% | killing at 50 µM (juvenile S. japonicum; [2]): 72.9% | Killing activity 24hr (juvenile S. japonicum; 10 μM, 24 h): 40.0%D | Killing activity 48hr (juvenile S. japonicum; 10 μM, 48 h): 48.6%D | Killing activity 72hr (juvenile S. japonicum; 10 μM, 72 h): 54.3%D | killing at 25 µM (adult S. japonicum; Schistosoma japonicum, 25 μM, 72 h, read-out: Killing activity 72hr): 62.5% | killing at 50 µM (adult S. japonicum; [1]): 40% | killing at 50 µM (adult S. japonicum; [2]): 87.5% | killing at 100 µM (adult S. japonicum; Schistosoma japonicum, 100 μM, 48 h, read-out: Killing activity 48hr): 57.1% | killing at 100 µM (adult S. japonicum; Schistosoma japonicum, 100 μM, 72 h, read-out: Killing activity 72hr): 85.7% | Killing activity 24hr (adult S. japonicum; 10 μM, 24 h): n.e. | Killing activity 48hr (adult S. japonicum; 10 μM, 48 h): n.e. | Killing activity 72hr (adult S. japonicum; 10 μM, 72 h): 50.0%D | Killing activity 24hr (adult S. japonicum; 25 μM, 24 h): n.e. | Killing activity 48hr (adult S. japonicum; 25 μM, 48 h): n.e. | Killing activity 24hr (adult S. japonicum; 50 μM, 24 h): n.e. | Killing activity 24hr (adult S. japonicum; 100 μM, 24 h): sluggish | Mortality of adult worms (adult S. japonicum; 100 μM, 24 h): did not cause death
